# Molecular target: 11β-HSD1 (Homo sapiens (Human), UniProt P28845)
# Experiment: 11β-HSD1 inhibiting activity, HTRF assay with human microsomal fractions
# Type: biochemical
# Details: 160 nM cortisone, 200 μM NADPH, 2 h at 37° C.
# Procedure: The inhibiting activity of 11β-HSD1 derived from microsomal fractions was measured using the HTRF assay (62CO2PEB, Cisbio). […] Europium (Eu^3+) cryptate and XL665-conjugated cortisol were then added to each well and incubated for an additional 2 h at room temperature. The Cortisol concentration was calculated u sing a calibration curve. The IC50 values were calculated from dose response curves using GraphPad Prism software.
# 11β-HSD1, sequence (P28845 whole entry): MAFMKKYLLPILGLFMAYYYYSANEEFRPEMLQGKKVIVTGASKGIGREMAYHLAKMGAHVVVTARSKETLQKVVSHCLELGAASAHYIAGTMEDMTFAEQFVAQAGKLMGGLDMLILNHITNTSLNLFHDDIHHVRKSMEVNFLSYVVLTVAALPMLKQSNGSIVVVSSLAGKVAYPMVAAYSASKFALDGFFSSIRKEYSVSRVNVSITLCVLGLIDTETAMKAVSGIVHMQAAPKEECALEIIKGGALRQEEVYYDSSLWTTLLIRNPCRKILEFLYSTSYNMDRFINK
row,SMILES,IC50
1,"CC(C)(CNS(=O)(=O)c1ccccc1)C(=O)NC1C2CC3CC1CC(C(N)=O)(C3)C2 (centres unmarked) [Example 69, E-4-[3-(benzenesulfonylamino)-2,2-dimethylpropanamido]adamantan-1-carboxylic acid amide]",28.6 nM
2,"NC(=O)CCC12CC3CC(C1)C(NC(=O)C1(CNS(=O)(=O)c4ccccc4F)CC1)C(C3)C2 (centres unmarked) [Example 34, E-N-(5-(3-amino-3-oxopropyl)adamantan-2-yl)-1-((2-fluoro-benzenesulfonylamino)methyl)cyclopropanecarboxamide]",29.9 nM
3,"O=C(O)CC[C@]12C[C@@H]3C[C@H](C1)[C@@H](NC(=O)C1(CNS(=O)(=O)c4ccccc4F)CC1)[C@@H](C3)C2 [Example 33, E-3-(4-(1((2-fluoro-benzenesulfonylamino)methyl)cyclopropanecarboxamido)adamantan-1-yl)propanoic acid]",1.5 nM
4,"NC(=O)C12CC3CC(C1)C(NC(=O)C1(CNS(=O)(=O)c4cccc(F)c4F)CC1)C(C3)C2 (centres unmarked) [Example 11, E-4-[1-((2,3-difluoro-benzenesulfonylamino)methyl)cyclopropanecarboxamido]-adamantan-1-carboxylic acid amide]",10.4 nM
5,"NC(=O)C12CC3CC(C1)C(NC(=O)c1cccc(NS(=O)(=O)c4cc(F)ccc4F)c1)C(C3)C2 (centres unmarked) [Example 122, E-4-[3-(2,5-difluoro-benzenesulfonylamino)-benzamido]-adamantan-1-carboxylic acid amide]",15.1 nM
6,"NC(=O)C12CC3CC(C1)C(NC(=O)c1cccc(NS(=O)(=O)c4cc(F)cc(Cl)c4)c1)C(C3)C2 (centres unmarked) [Example 118, E-4-[3-(3-chloro-5-fluoro-benzenesulfonylamino)-benzamido]-adamantan-1-carboxylic acid amide]",20.4 nM
7,"Cc1cc(S(=O)(=O)NC2(C(=O)NC3C4CC5CC3CC(C(N)=O)(C5)C4)CC2)c(F)cc1Cl (centres unmarked) [Example 46, E-4-[1-(2-fluoro-4-chloro-5-methyl-benzenesulfonylamino)cyclopropanecarboxamido]-adamantan-1-carboxylic acid amide]",34.7 nM
8,"Cc1c(Cl)cccc1S(=O)(=O)NCC(C)(C)C(=O)NC1C2CC3CC1CC(C(N)=O)(C3)C2 (centres unmarked) [Example 70, E-4-[3-(3-chloro-2-methyl-benzenesulfonylamino)-2,2-dimethylpropanamido]adamantan-1-carboxylic acid amide]",6.2 nM
9,"CCN(CC1(C(=O)NC2C3CC4CC2CC(C(N)=O)(C4)C3)CC1)S(=O)(=O)c1ccccc1F (centres unmarked) [Example 32, E-4-[1-((N-ethyl-fluoro-benzenesulfonylamino)methyl)cyclopropanecarboxamido]-adamantan-1-carboxylic acid amide]",1.4 nM
10,"NC(=O)C12CC3CC(C1)C(NC(=O)c1ccccc1NS(=O)(=O)c1ccccc1F)C(C3)C2 (centres unmarked) [Example 92, E-4-[2-(2-fluoro-benzenesulfonylamino)-benzamido]-adamantan-1-carboxylic acid amide]",148 nM
11,"Cc1cc(S(=O)(=O)NC2(C(=O)NC3C4CC5CC3CC(C(N)=O)(C5)C4)CC2)c(Cl)cc1Cl (centres unmarked) [Example 43, E-4-[1-(2,4-dichloro-5-methyl-benzenesulfonylamino)cyclopropanecarboxamido]-adamantan-1-carboxylic acid amide]",29.7 nM
12,"NC(=O)C12CC3CC(C1)C(NC(=O)C1(NS(=O)(=O)c4ccc(F)c(F)c4F)CC1)C(C3)C2 (centres unmarked) [Example 47, E-4-[1-(2,3,4-trifluoro-benzenesulfonylamino)cyclopropanecarboxamido]-adamantan-1-carboxylic acid amide]",495 nM
13,"Cc1cc(S(=O)(=O)NCC2(C(=O)NC3C4CC5CC3CC(C(N)=O)(C5)C4)CC2)c(Cl)cc1Cl (centres unmarked) [Example 14, E-4-[1-((2,4-dichloro-5-methyl-benzenesulfonylamino)methyl)cyclopropanecarboxamido]-adamantan-1-carboxylic acid amide]",13.3 nM
14,"NC(=O)C12CC3CC(C1)C(NC(=O)c1cccc(NS(=O)(=O)c4ccc(F)cc4F)c1)C(C3)C2 (centres unmarked) [Example 121, E-4-[3-(2,4-difluoro-benzenesulfonylamino)-benzamido]-adamantan-1-carboxylic acid amide]",7.8 nM
15,"Cn1ccc2cc(S(=O)(=O)NCC3(C(=O)NC4C5CC6CC4CC(C(N)=O)(C6)C5)CC3)ccc21 (centres unmarked) [Example 26, E-4-[1-((1-methyl-1H-indole-5-sulfonylamino)methyl)cyclopropanecarboxamido]-adamantan-1-carboxylic acid amide]",1.2 nM
16,NC(=O)C12CC3CC(C1)C(NC(=O)C1(NC(=O)c4cccc(F)c4F)CC1)C(C3)C2 (centres unmarked) [Example 59],11.2 nM
17,"NC(=O)C12CC3CC(C1)C(NC(=O)C1(NS(=O)(=O)c4cc(Cl)c(Cl)cc4F)CC1)C(C3)C2 (centres unmarked) [Example 45, E-4-[1-(2-fluoro-4,5-dichloro-benzenesulfonylamino)cyclopropanecarboxamido]-adamantan-1-carboxylic acid amide]",32.5 nM
18,NC(=O)C12CC3CC(C1)C(NC(=O)c1cccc(NS(=O)(=O)c4ccccc4C(F)(F)F)c1)C(C3)C2 (centres unmarked) [Example 100],15.3 nM

row,SMILES,IC50
1,"Cc1cccc(F)c1S(=O)(=O)NC1(C(=O)NC2C3CC4CC2CC(C(N)=O)(C4)C3)CC1 (centres unmarked) [Example 40, E-4-[1-(2-fluoro-6-methyl-benzenesulfonylamino)cyclopropanecarboxamido]-adamantan-1-carboxylic acid amide]",1.7 nM
2,"CN(c1cccc(C(=O)NC2C3CC4CC2CC(C(N)=O)(C4)C3)c1)S(=O)(=O)c1ccccc1C(F)(F)F (centres unmarked) [Example 99, E-4-(3-[(2-trifluoromethyl-benzenesulfonyl)-methylamino]-benzamido)-adamantan-1-carboxylic acid amide]",1.9 nM
3,"NC(=O)C12CC3CC(C1)C(NC(=O)C1(CNC(=O)N4CCCc5ccccc54)CC1)C(C3)C2 (centres unmarked) [Example 141, E-3,4-dihydro-2H-quinolin-1-carboxylic acid[1-(5-carbamoyl-adamantan-2-ylcarbamoyl)-cyclopropylmethyl]-amide]",52.5 nM
4,"O=C(NC1C2CC3CC1CC(O)(C3)C2)C1(CNS(=O)(=O)c2ccccc2F)CC1 (centres unmarked) [Example 2, 1-[(2-fluoro-benzenesulfonylamino)methyl]-N-(5-hydroxyadamantan-2-yl)cyclopropanecarboxamide]",26.6 nM
5,"NC(=O)C12CC3CC(C1)C(NC(=O)c1cccc(NS(=O)(=O)C4CC4)c1)C(C3)C2 (centres unmarked) [Example 138, E-4-(3-(cyclopropanesulfonamido)benzamido)adamantan-1-carboxylic acid amide]",62.1 nM
6,"Cc1cccc(F)c1S(=O)(=O)N(C)CC1(C(=O)NC2C3CC4CC2CC(C(N)=O)(C4)C3)CC1 (centres unmarked) [Example 13, E-4-[1-((2-fluoro-N,6-dimethyl-benzenesulfonylamino)methyl)cyclopropanecarboxamido]-adamantan-1-carboxylic acid amide]",2.8 nM
7,"Cc1c(Cl)cccc1S(=O)(=O)NCC1(C(=O)NC2C3CC4CC2CC(C(N)=O)(C4)C3)CC1 (centres unmarked) [Example 5, E-4-[1-((3-chloro-2-methyl-benzenesulfonylamino)methyl)cyclopropanecarboxamido]-adamantan-1-carboxylic acid amide]",2.7 nM
8,"NC(=O)C12CC3CC(C1)C(NC(=O)C1(CNC(=O)N4CCNc5ccccc54)CC1)C(C3)C2 (centres unmarked) [Example 146, E-3,4-dihydro-2H-quinoxalin-1-carboxylic acid[1-(5-carbamoyl-adamantan-2-ylcarbamoyl)-cyclopropylmethyl]-amide]",128 nM
9,"Cc1cccc(F)c1S(=O)(=O)NCC1(C(=O)NC2C3CC4CC2CC(C(N)=O)(C4)C3)CC1 (centres unmarked) [Example 10, E-4-[1-((2-fluoro-6-methyl-benzenesulfonylamino)methyl)cyclopropanecarboxamido]-adamantan-1-carboxylic acid amide]",2.5 nM
10,"NC(=O)C12CC3CC(C1)C(NC(=O)C1(NS(=O)(=O)c4ccc(F)cc4)CC1)C(C3)C2 (centres unmarked) [Example 42, E-4-[1-(4-fluoro-benzenesulfonylamino)cyclopropanecarboxamido]-adamantan-1-carboxylic acid amide]",6.4 nM
11,"NC(=O)C12CC3CC(C1)C(NC(=O)C1(CNS(=O)(=O)c4cc(Cl)c(Cl)cc4F)CC1)C(C3)C2 (centres unmarked) [Example 16, E-4-[1-((4,5-dichloro-2-fluoro-benzenesulfonylamino)methyl)cyclopropanecarboxamido]-adamantan-1-carboxylic acid amide]",5 nM
12,"Cc1c(Cl)cccc1S(=O)(=O)NC1(C(=O)NC2C3CC4CC2CC(C(N)=O)(C4)C3)CC1 (centres unmarked) [Example 41, E-4-[1-(3-chloro-2-methyl-benzenesulfonylamino)cyclopropanecarboxamido]-adamantan-1-carboxylic acid amide]",10 nM
13,"NC(=O)C12CC3CC(C1)C(NC(=O)c1cccc(NS(=O)(=O)c4ccc(C(F)(F)F)c(Cl)c4)c1)C(C3)C2 (centres unmarked) [Example 114, E-4-[3-(3-chloro-4-(trifluoromethyl)benzenesulfonylamino)benzamido]adamantan-1-carboxylic acid amide]",30.7 nM
14,"O=C(NC1CC2CCC1C2)C1(NS(=O)(=O)c2cccc(Cl)c2)CC1 (centres unmarked) [Example 55, N-(bicyclo[2.2.1]heptan-2-yl)-1-(3-chloro-benzenesulfonylamino)cyclopropanecarboxamide]",8.3 nM
15,"NC(=O)C12CC3CC(C1)C(NC(=O)C1(NS(=O)(=O)c4cccs4)CC1)C(C3)C2 (centres unmarked) [Example 48, E-4-[1-(thiophen-2-sulfonylamino)cyclopropanecarboxamido]-adamantan-1-carboxylic acid amide]",62.8 nM
16,"CN(CC1(C(=O)NC23CC4CC(CC(C4)C2)C3)CC1)S(=O)(=O)c1ccccc1F [Example 31, N-(adamantan-1-yl)-1-((2-fluoro-N-methylbenzenesulfonylamino)methyl)cyclopropanecarboxamido]",1.2 nM
17,NC(=O)C12CC3CC(C1)C(NC(=O)c1cccc(NS(=O)(=O)c4ccccc4C(F)(F)F)c1)C(C3)C2 (centres unmarked) [Example 115],19.1 nM
